Data taken from ChEMBL document CHEMBL4507276 (2021).

What was measured:
[1] = molecular target: D(1A) dopamine receptor (Homo sapiens) (UniProt P21728); experiment: D1/H Cerep selectivity data (BI); conditions: filed as antagonist, Compound concentration 20.0 uM
[2] = molecular target: Nicotinic acetylcholine receptor alpha-1/beta-1 (Homo sapiens) (UniProt P02708+P11230); experiment: NMUSCLEH_ANTAG Cerep selectivity data (BI); format: protein-complex assay; conditions: filed as antagonist, Compound concentration 20.0 uM
[3] = molecular target: xanthine dehydrogenase/oxidase (Bos taurus, UniProt P80457); experiment: SUPOXXANOXID Cerep selectivity data (BI); parameters: mode of action inhibitor; conditions: cattle, xanthine oxidase enzyme assay; compound concentration 20 uM; read-out: % Ctrl
xanthine dehydrogenase/oxidase, sequence (P80457 whole entry): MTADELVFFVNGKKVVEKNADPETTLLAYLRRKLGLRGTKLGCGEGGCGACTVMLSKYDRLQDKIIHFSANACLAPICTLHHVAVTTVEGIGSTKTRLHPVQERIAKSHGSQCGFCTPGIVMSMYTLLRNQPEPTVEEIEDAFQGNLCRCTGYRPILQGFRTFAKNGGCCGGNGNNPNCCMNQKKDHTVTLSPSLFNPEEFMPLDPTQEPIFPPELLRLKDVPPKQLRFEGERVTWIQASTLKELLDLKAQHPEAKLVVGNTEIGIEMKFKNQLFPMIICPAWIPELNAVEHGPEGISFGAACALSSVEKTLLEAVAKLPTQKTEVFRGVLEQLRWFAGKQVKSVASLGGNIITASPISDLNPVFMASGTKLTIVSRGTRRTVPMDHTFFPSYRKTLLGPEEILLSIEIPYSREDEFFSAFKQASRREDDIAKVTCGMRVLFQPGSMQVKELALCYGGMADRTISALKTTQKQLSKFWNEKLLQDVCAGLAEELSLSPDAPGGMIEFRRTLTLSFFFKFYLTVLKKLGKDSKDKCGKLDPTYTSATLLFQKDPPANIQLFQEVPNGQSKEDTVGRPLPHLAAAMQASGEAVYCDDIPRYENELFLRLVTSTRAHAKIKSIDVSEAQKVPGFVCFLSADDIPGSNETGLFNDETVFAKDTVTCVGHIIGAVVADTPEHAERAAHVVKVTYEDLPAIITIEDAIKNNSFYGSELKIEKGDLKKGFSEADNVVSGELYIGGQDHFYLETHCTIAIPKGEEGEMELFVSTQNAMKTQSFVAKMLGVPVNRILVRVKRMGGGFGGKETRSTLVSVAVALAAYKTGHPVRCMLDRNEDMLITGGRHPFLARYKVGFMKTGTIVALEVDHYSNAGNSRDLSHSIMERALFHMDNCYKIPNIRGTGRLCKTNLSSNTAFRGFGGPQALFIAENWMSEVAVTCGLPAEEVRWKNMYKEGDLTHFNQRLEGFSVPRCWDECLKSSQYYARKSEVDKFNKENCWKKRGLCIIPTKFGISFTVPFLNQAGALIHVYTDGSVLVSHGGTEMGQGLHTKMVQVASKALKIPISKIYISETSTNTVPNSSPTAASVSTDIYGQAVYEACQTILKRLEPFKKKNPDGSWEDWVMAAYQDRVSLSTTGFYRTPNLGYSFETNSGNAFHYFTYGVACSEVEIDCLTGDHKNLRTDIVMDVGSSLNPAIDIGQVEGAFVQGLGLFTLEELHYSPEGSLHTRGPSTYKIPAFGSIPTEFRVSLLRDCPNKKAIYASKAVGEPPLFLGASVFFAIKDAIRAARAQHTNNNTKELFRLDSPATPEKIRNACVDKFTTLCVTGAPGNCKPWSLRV

[4] = molecular target: Histamine H2 receptor (Homo sapiens) (UniProt P25021); experiment: H2/H Eurofins-Panlabs selectivity data (BI); conditions: Compound concentration 10.0 uM
Histamine H2 receptor (Homo sapiens), sequence (P25021 whole entry): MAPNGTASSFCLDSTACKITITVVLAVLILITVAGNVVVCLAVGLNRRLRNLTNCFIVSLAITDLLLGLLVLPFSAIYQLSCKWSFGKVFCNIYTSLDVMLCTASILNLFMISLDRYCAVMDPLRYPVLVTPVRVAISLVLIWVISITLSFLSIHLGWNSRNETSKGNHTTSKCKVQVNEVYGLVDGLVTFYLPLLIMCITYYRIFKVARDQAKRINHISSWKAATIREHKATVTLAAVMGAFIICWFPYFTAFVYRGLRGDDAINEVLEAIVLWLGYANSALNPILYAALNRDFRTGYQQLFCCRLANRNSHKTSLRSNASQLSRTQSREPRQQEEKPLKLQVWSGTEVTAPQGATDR

[5] = molecular target: Dual specificity tyrosine-phosphorylation-regulated kinase 3 (Homo sapiens) (UniProt O43781); experiment: DYRK3 Invitrogen selectivity data (BI); conditions: Compound concentration 3.0 uM
Dual specificity tyrosine-phosphorylation-regulated kinase 3 (Homo sapiens), sequence (O43781 whole entry): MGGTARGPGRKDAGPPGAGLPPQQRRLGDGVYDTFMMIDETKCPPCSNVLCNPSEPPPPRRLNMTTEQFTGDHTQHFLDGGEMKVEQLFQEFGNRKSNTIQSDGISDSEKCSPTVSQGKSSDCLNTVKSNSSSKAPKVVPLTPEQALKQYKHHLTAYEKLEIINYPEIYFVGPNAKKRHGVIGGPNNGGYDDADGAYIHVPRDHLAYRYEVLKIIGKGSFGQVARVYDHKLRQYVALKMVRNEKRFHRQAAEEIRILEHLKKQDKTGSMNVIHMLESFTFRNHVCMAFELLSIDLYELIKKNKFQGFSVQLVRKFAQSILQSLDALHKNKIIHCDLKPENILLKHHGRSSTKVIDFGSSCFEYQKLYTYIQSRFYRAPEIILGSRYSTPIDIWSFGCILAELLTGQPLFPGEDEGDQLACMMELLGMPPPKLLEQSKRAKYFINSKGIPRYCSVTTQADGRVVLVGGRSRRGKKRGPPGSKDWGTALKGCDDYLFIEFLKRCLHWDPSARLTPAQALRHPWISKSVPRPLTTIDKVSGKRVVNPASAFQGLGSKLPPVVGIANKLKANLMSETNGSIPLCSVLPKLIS

[6] = molecular target: T1, Ephrin type-B receptor 1 (Homo sapiens) (UniProt P54762); experiment: EPHB1 Invitrogen selectivity data (BI); conditions: Compound concentration 3.0 uM
T1 sequence (whole entry): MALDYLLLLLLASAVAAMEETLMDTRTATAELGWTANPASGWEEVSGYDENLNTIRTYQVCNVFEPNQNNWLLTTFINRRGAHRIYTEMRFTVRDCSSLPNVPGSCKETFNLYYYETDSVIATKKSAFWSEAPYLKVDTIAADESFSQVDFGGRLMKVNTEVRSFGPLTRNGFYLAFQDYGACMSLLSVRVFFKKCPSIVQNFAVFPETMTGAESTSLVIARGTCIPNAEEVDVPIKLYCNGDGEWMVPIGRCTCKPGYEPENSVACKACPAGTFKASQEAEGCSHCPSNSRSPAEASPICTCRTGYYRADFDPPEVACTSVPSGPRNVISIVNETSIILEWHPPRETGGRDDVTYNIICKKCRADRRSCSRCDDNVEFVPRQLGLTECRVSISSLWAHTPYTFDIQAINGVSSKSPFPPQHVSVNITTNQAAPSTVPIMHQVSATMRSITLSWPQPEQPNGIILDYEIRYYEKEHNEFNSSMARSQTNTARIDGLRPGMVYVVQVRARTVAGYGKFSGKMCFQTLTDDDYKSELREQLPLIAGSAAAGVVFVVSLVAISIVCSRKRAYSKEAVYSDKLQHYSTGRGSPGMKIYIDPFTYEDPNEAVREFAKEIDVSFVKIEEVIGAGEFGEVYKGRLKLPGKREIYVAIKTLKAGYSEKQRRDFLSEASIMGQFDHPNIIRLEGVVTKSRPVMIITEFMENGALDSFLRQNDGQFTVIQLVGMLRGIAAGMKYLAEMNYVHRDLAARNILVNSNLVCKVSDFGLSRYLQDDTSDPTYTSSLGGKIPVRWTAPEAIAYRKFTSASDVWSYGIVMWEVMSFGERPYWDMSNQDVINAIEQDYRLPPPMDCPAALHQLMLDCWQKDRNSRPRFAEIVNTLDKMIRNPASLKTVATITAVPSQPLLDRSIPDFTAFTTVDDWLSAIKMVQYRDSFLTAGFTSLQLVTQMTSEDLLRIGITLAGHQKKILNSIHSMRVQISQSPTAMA

[7] = molecular target: T2, Mitogen-activated protein kinase kinase kinase 5 (Homo sapiens) (UniProt Q99683); experiment: MAP3K5 Invitrogen selectivity data (BI); conditions: Compound concentration 3.0 uM
T2 sequence (whole entry): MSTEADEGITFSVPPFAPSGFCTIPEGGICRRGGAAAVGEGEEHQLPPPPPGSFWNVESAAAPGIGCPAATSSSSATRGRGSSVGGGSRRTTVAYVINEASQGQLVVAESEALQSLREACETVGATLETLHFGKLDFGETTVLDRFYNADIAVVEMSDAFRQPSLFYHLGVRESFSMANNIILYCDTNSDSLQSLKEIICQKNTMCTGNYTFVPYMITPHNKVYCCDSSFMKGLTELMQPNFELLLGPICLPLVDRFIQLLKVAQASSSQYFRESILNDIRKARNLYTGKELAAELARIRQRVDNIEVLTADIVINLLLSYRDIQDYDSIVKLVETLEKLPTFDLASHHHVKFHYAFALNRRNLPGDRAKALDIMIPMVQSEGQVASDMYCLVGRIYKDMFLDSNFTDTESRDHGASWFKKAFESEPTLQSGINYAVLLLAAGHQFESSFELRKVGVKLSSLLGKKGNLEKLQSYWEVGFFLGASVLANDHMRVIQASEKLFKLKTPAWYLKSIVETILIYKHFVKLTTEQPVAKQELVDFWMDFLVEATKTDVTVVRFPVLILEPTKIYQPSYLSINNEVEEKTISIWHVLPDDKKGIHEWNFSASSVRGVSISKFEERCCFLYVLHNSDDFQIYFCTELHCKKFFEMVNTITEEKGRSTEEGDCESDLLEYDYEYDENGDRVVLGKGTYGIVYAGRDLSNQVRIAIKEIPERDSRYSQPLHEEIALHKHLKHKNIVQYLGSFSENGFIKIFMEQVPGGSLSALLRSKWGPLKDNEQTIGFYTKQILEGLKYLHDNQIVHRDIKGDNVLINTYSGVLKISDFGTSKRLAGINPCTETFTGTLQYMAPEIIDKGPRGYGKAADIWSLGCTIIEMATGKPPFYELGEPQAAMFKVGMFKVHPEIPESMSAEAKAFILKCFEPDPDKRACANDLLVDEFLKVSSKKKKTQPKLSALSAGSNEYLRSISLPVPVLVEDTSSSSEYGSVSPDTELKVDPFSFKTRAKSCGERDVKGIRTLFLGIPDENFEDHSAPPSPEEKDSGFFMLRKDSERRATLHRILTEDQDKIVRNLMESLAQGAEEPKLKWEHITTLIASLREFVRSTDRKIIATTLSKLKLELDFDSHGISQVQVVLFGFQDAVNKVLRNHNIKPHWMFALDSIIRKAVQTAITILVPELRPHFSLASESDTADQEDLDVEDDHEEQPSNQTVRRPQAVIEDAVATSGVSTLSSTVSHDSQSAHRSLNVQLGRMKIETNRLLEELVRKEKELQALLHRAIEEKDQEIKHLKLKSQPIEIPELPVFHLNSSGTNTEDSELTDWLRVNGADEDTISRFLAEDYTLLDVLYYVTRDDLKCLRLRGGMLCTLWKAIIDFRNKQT

D(1A) dopamine receptor (Homo sapiens), sequence (P21728 whole entry): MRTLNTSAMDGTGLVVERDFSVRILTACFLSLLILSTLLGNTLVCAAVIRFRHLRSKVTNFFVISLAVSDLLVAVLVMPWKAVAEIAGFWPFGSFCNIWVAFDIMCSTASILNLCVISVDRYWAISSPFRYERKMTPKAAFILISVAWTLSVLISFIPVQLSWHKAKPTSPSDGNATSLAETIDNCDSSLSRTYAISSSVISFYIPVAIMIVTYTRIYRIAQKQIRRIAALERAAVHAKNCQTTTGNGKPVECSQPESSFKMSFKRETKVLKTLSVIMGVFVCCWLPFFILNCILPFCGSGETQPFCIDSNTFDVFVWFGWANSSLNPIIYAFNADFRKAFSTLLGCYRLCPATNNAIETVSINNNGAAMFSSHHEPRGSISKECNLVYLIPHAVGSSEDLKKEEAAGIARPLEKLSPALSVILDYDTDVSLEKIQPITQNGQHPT

CN(C)C(=O)Cn1cc(-c2nc([C@@](C)(c3ccc(-c4cnc(N)nc4)cc3)C3CC3)no2)cn1 [BI 665915]
85% (not active): activity at 20 µM [3]
inactive: residual activity [1] 98% | residual activity [2] 120% | residual activity [4] 98% | residual activity [5] 102% | residual activity [6] 93% | residual activity [7] 99%
